Assay results taken from patent US11370798B2 (Vertex Pharmaceuticals Incorporated, priority 2012, dated 2022).

Test system: HCT116 colorectal cancer cells
Assay: Cisplatin sensitization assay (96 h cell viability MTS);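 further: Test-compound concentration that lowers the Cisplatin IC50 by a set fold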
Assay type: cell-based
Conditions: compound and Cisplatin added simultaneously, Cisplatin sensitization value
Procedure, shortened: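 Compound and cisplatin added together as a full matrix of 2-fold serial dilutions from a top final concentration of 10 μM; cells incubated 96 h at 37° C, 5% CO2. Viability then read by MTS after 1 h further incubation; sensitization value reported in μM bins.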

| SMILES | Cisplatin Sensitization Assay |
| --- | --- |
| Nc1nn2cc(F)cnc2c1C(=O)Nc1cncc(F)c1N1CCN2C(=O)CCCC2C1 (centres unmarked) [I-N-277, 2-amino-6-fluoro-N-(5-fluoro-4-(6-oxohexahydro-1H-pyrido[1,2-a]pyrazin-2(6H)-yl)pyridin-3-yl)pyrazolo[1,5-a]pyrimidine-3-carboxamide] | +++ (Cisplatin sensitization value of <0.02 μM) |
| Nc1nn2cc(F)cnc2c1C(=O)Nc1cncc(F)c1N1CCN(C(=O)C2COC2)CC1 [I-N-278, 2-amino-6-fluoro-N-(5-fluoro-4-(4-(oxetane-3-carbonyl)piperazin-1-yl)pyridin-3-yl)pyrazolo[1,5-a]pyrimidine-3-carboxamide] | +++ (Cisplatin sensitization value of <0.02 μM) |
| Nc1nn2cc(F)cnc2c1C(=O)Nc1cncc(F)c1N1CCN2C(=O)CCC[C@H]2C1 [I-N-279, (S)-2-amino-6-fluoro-N-(5-fluoro-4-(6-oxohexahydro-1H-pyrido[1,2-a]pyrazin-2(6H)-yl)pyridin-3-yl)pyrazolo[1,5-a]pyrimidine-3-carboxamide] | +++ (Cisplatin sensitization value of <0.02 μM) |
| Nc1nn2cc(F)cnc2c1C(=O)Nc1cncc(F)c1N1CCN2C(=O)CCC[C@@H]2C1 [I-N-280, (R)-2-amino-6-fluoro-N-(5-fluoro-4-(6-oxohexahydro-1H-pyrido[1,2-a]pyrazin-2(6H)-yl)pyridin-3-yl)pyrazolo[1,5-a]pyrimidine-3-carboxamide] | +++ (Cisplatin sensitization value of <0.02 μM) |
| Nc1nn2cc(F)cnc2c1C(=O)Nc1cncc(Cl)c1N1CCCC1 [I-N-281, 2-amino-N-(5-chloro-4-(pyrrolidin-1-yl)pyridin-3-yl)-6-fluoropyrazolo[1,5-a]pyrimidine-3-carboxamide] | +++ (Cisplatin sensitization value of <0.02 μM) |
| COCC1CCN(c2ccncc2NC(=O)c2c(N)nn3cc(F)cnc23)CC1 [I-N-282, 2-amino-6-fluoro-N-(4-(4-(methoxymethyl)piperidin-1-yl)pyridin-3-yl)pyrazolo[1,5-a]pyrimidine-3-carboxamide] | +++ (Cisplatin sensitization value of <0.02 μM) |
| Cc1cncn1-c1ccncc1NC(=O)c1c(N)nn2cc(F)cnc12 [I-N-283, 2-amino-6-fluoro-N-(4-(5-methyl-1H-imidazol-1-yl)pyridin-3-yl)pyrazolo[1,5-a]pyrimidine-3-carboxamide] | ++ (Cisplatin sensitization value>0.02 μM but <0.2 μM) |
| Nc1nn2cc(F)cnc2c1C(=O)Nc1cncc(Cl)c1N1CCC(O)C1 (centres unmarked) [I-N-284, 2-amino-N-(5-chloro-4-(3-hydroxypyrrolidin-1-yl)pyridin-3-yl)-6-fluoropyrazolo[1,5-a]pyrimidine-3-carboxamide] | +++ (Cisplatin sensitization value of <0.02 μM) |
| N#C[C@@H]1CCN(c2c(Cl)cncc2NC(=O)c2c(N)nn3cc(F)cnc23)C1 [I-N-285, (R)-2-amino-N-(5-chloro-4-(3-cyanopyrrolidin-1-yl)pyridin-3-yl)-6-fluoropyrazolo[1,5-a]pyrimidine-3-carboxamide] | ++ (Cisplatin sensitization value>0.02 μM but <0.2 μM) |
| CN1CC2CN(c3c(Cl)cncc3NC(=O)c3c(N)nn4cc(F)cnc34)CC2C1 (centres unmarked) [I-N-286, 2-amino-N-(5-chloro-4-(5-methylhexahydropyrrolo[3,4-c]pyrrol-2(1H)-yl)pyridin-3-yl)-6-fluoropyrazolo[1,5-a]pyrimidine-3-carboxamide] | ++ (Cisplatin sensitization value>0.02 μM but <0.2 μM) |
| CS(=O)(=O)C1CCN(c2c(Cl)cncc2NC(=O)c2c(N)nn3cc(F)cnc23)C1 (centres unmarked) [I-N-287, 2-amino-N-(5-chloro-4-(3-(methylsulfonyl)pyrrolidin-1-yl)pyridin-3-yl)-6-fluoropyrazolo[1,5-a]pyrimidine-3-carboxamide] | +++ (Cisplatin sensitization value of <0.02 μM) |
| Nc1nn2cc(F)cnc2c1C(=O)Nc1cncc(F)c1N1CCC(n2ccnc2)CC1 [I-N-288, N-(4-(4-(1H-imidazol-1-yl)piperidin-1-yl)-5-fluoropyridin-3-yl)-2-amino-6-fluoropyrazolo[1,5-a]pyrimidine-3-carboxamide] | +++ (Cisplatin sensitization value of <0.02 μM) |
| CN1CCN(C(=O)C2CCCN(c3c(F)cncc3NC(=O)c3c(N)nn4cc(F)cnc34)C2)CC1 (centres unmarked) [I-N-289, 2-amino-6-fluoro-N-(5-fluoro-4-(3-(4-methylpiperazine-1-carbonyl)piperidin-1-yl)pyridin-3-yl)pyrazolo[1,5-a]pyrimidine-3-carboxamide] | ++ (Cisplatin sensitization value>0.02 μM but <0.2 μM) |
| CN(C)C(=O)C1CCCN(c2ccncc2NC(=O)c2c(N)nn3cc(F)cnc23)C1 (centres unmarked) [I-N-290, 2-amino-N-(4-(3-(dimethylcarbamoyl)piperidin-1-yl)pyridin-3-yl)-6-fluoropyrazolo[1,5-a]pyrimidine-3-carboxamide] | ++ (Cisplatin sensitization value>0.02 μM but <0.2 μM) |
| CN1CC[C@H](Oc2ccncc2NC(=O)c2c(N)nn3cc(F)cnc23)C1 [I-O-1, (S)-2-amino-6-fluoro-N-(4-((1-methylpyrrolidin-3-yl)oxy)pyridin-3-yl)pyrazolo[1,5-a]pyrimidine-3-carboxamide] | +++ (Cisplatin sensitization value of <0.02 μM) |
| CN(C)Cc1ccc(Oc2ccncc2NC(=O)c2c(N)nn3cc(F)cnc23)cn1 [I-O-3, 2-amino-N-(4-((6-((dimethylamino)methyl)pyridin-3-yl)oxy)pyridin-3-yl)-6-fluoropyrazolo[1,5-a]pyrimidine-3-carboxamide] | ++ (Cisplatin sensitization value>0.02 μM but <0.2 μM) |
| COc1ccncc1NC(=O)c1c(N)nn2cc(F)cnc12 [I-O-4, 2-amino-6-fluoro-N-(4-methoxypyridin-3-yl)pyrazolo[1,5-a]pyrimidine-3-carboxamide] | ++ (Cisplatin sensitization value>0.02 μM but <0.2 μM) |
| Nc1nn2cc(F)cnc2c1C(=O)Nc1cnccc1O[C@H]1CN2CCC1CC2 [I-O-5, (R)-2-amino-6-fluoro-N-(4-(quinuclidin-3-yloxy)pyridin-3-yl)pyrazolo[1,5-a]pyrimidine-3-carboxamide] | +++ (Cisplatin sensitization value of <0.02 μM) |
| Nc1nn2cc(F)cnc2c1C(=O)Nc1cnccc1Oc1cccnc1 [I-O-7, 2-amino-6-fluoro-N-(4-(pyridin-3-yloxy)pyridin-3-yl)pyrazolo[1,5-a]pyrimidine-3-carboxamide] | ++ (Cisplatin sensitization value>0.02 μM but <0.2 μM) |
| Nc1nn2cc(F)cnc2c1C(=O)Nc1cnccc1OC1CCC(C(=O)O)CC1 (centres unmarked) [I-O-8, 4-((3-(2-amino-6-fluoropyrazolo[1,5-a]pyrimidine-3-carboxamido)pyridin-4-yl)oxy)cyclohexanecarboxylic acid] | + (Cisplatin sensitization value>0.2 μM but <5 μM) |
| Nc1nn2cc(F)cnc2c1C(=O)Nc1cnccc1O[C@H]1CCCN(C2COC2)C1 [I-O-9, (S)-2-amino-6-fluoro-N-(4-((1-(oxetan-3-yl)piperidin-3-yl)oxy)pyridin-3-yl)pyrazolo[1,5-a]pyrimidine-3-carboxamide] | ++ (Cisplatin sensitization value>0.02 μM but <0.2 μM) |
| CN1CCC(Oc2ccncc2NC(=O)c2c(N)nn3cc(F)cnc23)CC1 [I-O-12, 2-amino-6-fluoro-N-(4-((1-methylpiperidin-4-yl)oxy)pyridin-3-yl)pyrazolo[1,5-a]pyrimidine-3-carboxamide] | +++ (Cisplatin sensitization value of <0.02 μM) |
| COC(=O)[C@H]1CC[C@H](Oc2ccncc2NC(=O)c2c(N)nn3cc(F)cnc23)CC1 [I-O-13, (1r,4r)-methyl 4-((3-(2-amino-6-fluoropyrazolo[1,5-a]pyrimidine-3-carboxamido)pyridin-4-yl)oxy)cyclohexanecarboxylate] | +++ (Cisplatin sensitization value of <0.02 μM) |
| CCOc1ccncc1NC(=O)c1c(N)nn2cc(F)cnc12 [I-O-14, 2-amino-N-(4-ethoxypyridin-3-yl)-6-fluoropyrazolo[1,5-a]pyrimidine-3-carboxamide] | +++ (Cisplatin sensitization value of <0.02 μM) |
| Nc1nn2cc(F)cnc2c1C(=O)Nc1cnccc1O[C@H]1Cc2nccn2C1 [I-O-16, (S)-2-amino-N-(4-((6,7-dihydro-5H-pyrrolo[1,2-a]imidazol-6-yl)oxy)pyridin-3-yl)-6-fluoropyrazolo[1,5-a]pyrimidine-3-carboxamide] | +++ (Cisplatin sensitization value of <0.02 μM) |
| CN(C)C(=O)[C@H]1CC[C@@H](Oc2ccncc2NC(=O)c2c(N)nn3cc(F)cnc23)CC1 [I-O-17, 2-amino-N-(4-(((1s,4s)-4-(dimethylcarbamoyl)cyclohexyl)oxy)pyridin-3-yl)-6-fluoropyrazolo[1,5-a]pyrimidine-3-carboxamide] | +++ (Cisplatin sensitization value of <0.02 μM) |
| CN1CCN(C(=O)[C@H]2CC[C@@H](Oc3ccncc3NC(=O)c3c(N)nn4cc(F)cnc34)CC2)CC1 [I-O-19, 2-amino-6-fluoro-N-(4-(((1s,4s)-4-(4-methylpiperazine-1-carbonyl)cyclohexyl)oxy)pyridin-3-yl)pyrazolo[1,5-a]pyrimidine-3-carboxamide] | +++ (Cisplatin sensitization value of <0.02 μM) |
| CCC(C#N)c1cnc2c(C(=O)Nc3cnccc3OC)c(N)nn2c1 (centres unmarked) [I-O-20, 2-amino-6-(1-cyanopropyl)-N-(4-methoxypyridin-3-yl)pyrazolo[1,5-a]pyrimidine-3-carboxamide] | ++ (Cisplatin sensitization value>0.02 μM but <0.2 μM) |
| COc1ccncc1NC(=O)c1c(N)nn2cc(C(C)C#N)cnc12 (centres unmarked) [I-O-21, 2-amino-6-(1-cyanoethyl)-N-(4-methoxypyridin-3-yl)pyrazolo[1,5-a]pyrimidine-3-carboxamide] | ++ (Cisplatin sensitization value>0.02 μM but <0.2 μM) |
